Results as given in the C3SDB collision cross section collection.
Values joined by “and” are separate entries in the source; they are usually repeats but may differ in a detail not shown here. Equal entries are not always repeated. Values belong to the molecule of their own block, whether it stands above or below them.

Experiments:
[1] = instrument: DT, stepped-field
[2] = instrument: DT, stepped-field; remark: listed apart in the source
[3] = instrument: TW, calibrated with phosphatidylcholines (ESI+) and phosphatidylethanolamines (ESI-)
[4] = instrument: DT, single field, calibrated with Agilent tune mix (Agilent)
[5] = instrument: DT, single field, calibrated with Agilent tune mix (Agilent); remark: listed apart in the source
[6] = instrument: DT, stepped-field; remark: listed apart in the source

Compound: CCCCC/C=C\C/C=C\CCCCCCCC(=O)OC[C@H](COP(=O)([O-])OCC[N+](C)(C)C)OC(=O)CCCCCCCCC/C=C\CCCCCC [PC(36:3)]
collision cross section (N2) ([3]; [M+CH3COO]-): 291.6 Å²
collision cross section (N2) ([3]; [M+H]+): 285.5 Å²
collision cross section (N2) ([4]; [M+HCOO]-): 289.4 Å²
collision cross section (N2) ([4]; [M+H]+): 288.8 Å²
collision cross section (N2) ([4]; [M+Na]+): 291.9 Å²
collision cross section (N2) ([2]; [M+H]+): 295.8 Å²

Compound: CCCCC/C=C\C/C=C\CCCCCCCC(=O)O[C@H](COC(=O)CCCCCCCCCCC)COP(=O)(O)O[C@H]1C(O)C(O)C(O)[C@@H](O)C1O (some centres not stated) [PI(14:1/16:1)]
collision cross section (N2) ([2]; [M-H]-): 283.6 Å²

Compound: CCCCCCC/C=C\CCCCCCCC(=O)OC[C@@H](O)COP(=O)(O)OC[C@@H](O)CO [LPG(17:1)]
collision cross section (N2) ([2]; [M-H]-): 213.5 Å²

Compound: CCCCCCCC/C=C\CCCCCCCC(=O)OC[C@@H](O)COP(=O)(O)OC[C@@H](O)CO [LPG(18:1)]
collision cross section (N2) ([2]; [M-H]-): 217.9 Å² and 216.9 Å²

Compound: CCCC/C=C\CCCCCCCC(=O)OC[C@H](COP(=O)(O)O[C@H]1C(O)C(O)C(O)[C@@H](O)C1O)OC(=O)CCCCCCC/C=C\CCCCCCCC (some centres not stated) [PI(16:1/16:1)]
collision cross section (N2) ([2]; [M-H]-): 282.9 Å²

Compound: CCCCC/C=C\C/C=C\CCCCCCCC(=O)O[C@H](COCCCCCCCCCCCCCCCCCC)COP(=O)([O-])OCC[N+](C)(C)C [PC(o36:2)]
collision cross section (N2) ([2]; [M+H]+): 303.1 Å²

Compound: CCCCC/C=C\C/C=C\CCCCCCCC(=O)O [Linoleic acid]
collision cross section (N2) ([5]; [M-H]-): 173.24 Å²
collision cross section (N2) ([6]; [M-H]-): 175.69 Å²

Compound: N[C@@H](CCC(=O)O)C(=O)O [L-Glutamate]
collision cross section (N2) ([6]; [M-H]-): 125.65 Å²

Compound: N[C@@H](CSSC[C@H](N)C(=O)O)C(=O)O [L-Cystine]
collision cross section (N2) ([5]; [M+H]+): 149.4 Å²
collision cross section (N2) ([6]; [M+H]+): 150.08 Å²
collision cross section (N2) ([6]; [M+Na]+): 151.81 Å²
collision cross section (N2) ([6]; [M-H]-): 144.39 Å²

Compound: CCCCCCCCCCCCCCCCCCCCCCCC(=O)O [Lignoceric acid]
collision cross section (N2) ([6]; [M-H]-): 201.11 Å²

Compound: CC/C=C\C/C=C\C/C=C\CCCCCCCC(=O)O [Linolenic acid]
collision cross section (N2) ([6]; [M-H]-): 174.88 Å²

Compound: NC(N)=NCCC[C@H](NC(=O)[C@H](Cc1ccccc1)NC(=O)[C@@H]1CCCN1C(=O)[C@H](CO)NC(=O)[C@H](Cc1ccccc1)NC(=O)CNC(=O)[C@@H]1CCCN1C(=O)[C@@H]1CCCN1C(=O)[C@@H](N)CCCN=C(N)N)C(=O)O [Bradykinin]
collision cross section (N2) ([6]; [M+2H]2+): 343.33 Å²
collision cross section (N2) ([6]; [M+3H]3+): 447.61 Å²
collision cross section (N2) ([6]; [M+H]+): 315.25 Å²

Compound: CCCCC/C=C\C/C=C\C/C=C\C/C=C\CCCC(=O)O [Arachidonic acid]
collision cross section (N2) ([6]; [M-H]-): 183.66 Å²

Compound: CC[C@H](C)[C@H](NC(=O)[C@H](Cc1ccc(O)cc1)NC(=O)[C@@H](NC(=O)[C@H](CCCN=C(N)N)NC(=O)[C@@H](N)CC(=O)O)C(C)C)C(=O)N[C@@H](Cc1cnc[nH]1)C(=O)N1CCC[C@H]1C(=O)N[C@@H](Cc1ccccc1)C(=O)N[C@@H](Cc1cnc[nH]1)C(=O)N[C@@H](CC(C)C)C(=O)O [Angiotensin I]
collision cross section (N2) ([6]; [M+2H]2+): 387.3 Å²
collision cross section (N2) ([6]; [M+3H]3+): 474.71 Å²
collision cross section (N2) ([6]; [M+4H]4+): 549.24 Å²
collision cross section (N2) ([6]; [M+H]+): 357.31 Å²

Other lines, results leading:

collision cross section (N2) ([1]; [M+H]+): 296.42 Å² and 297.29 Å²
collision cross section (N2) ([1]; [M+Na]+): 298.03 Å² and 300.74 Å²
collision cross section (N2) ([2]; [M+H]+): 302.7 Å² and 302.8 Å²
Compound: CCCCC/C=C\C/C=C\CCCCCCCCCCCC(=O)O[C@H](COC(=O)CCCCCCCCCCCCC)COP(=O)([O-])OCC[N+](C)(C)C [PC(18:1/18:1)]

collision cross section (N2) ([2]; [M+H]+): 286.1 Å²
Compound: CCCCCC/C=C\CCCCCCCCCC(=O)O[C@H](COC(=O)CCCCCCCCCCCCCCC)COP(=O)(O)OCCN [PE(16:0/18:1)]

collision cross section (N2) ([2]; [M+H]+): 279.6 Å²
Compound: CCCC/C=C\C/C=C\CCCCCCCC(=O)O[C@H](COC(=O)CCCCCCCCCCCC)COP(=O)([O-])OCC[N+](C)(C)C [PC(14:1/16:1)]

collision cross section (N2) ([2]; [M-H]-): 268.7 Å²
Compound: CCCCCCCC/C=C\CCCCCCCCCC(=O)O[C@H](COC(=O)CCCCCCCCCCC)COP(=O)(O)OC[C@@H](O)CO [PG(16:0/16:1)]

collision cross section (N2) ([3]; [M-H]-): 277.4 Å²
collision cross section (N2) ([4]; [M+H]+): 283 Å²
collision cross section (N2) ([4]; [M+Na]+): 284.2 Å²
collision cross section (N2) ([4]; [M-H]-): 277.5 Å²
collision cross section (N2) ([2]; [M-H]-): 285 Å² and 286.5 Å²
Compound: CCCCC/C=C\C/C=C\CCCCCCCCCCCC(=O)O[C@H](COC(=O)CCCCCCCCCCCCC)COP(=O)(O)OC[C@H](N)C(=O)O [PS(36:2)]

collision cross section (N2) ([3]; [M+Na]+): 287.8 Å²
collision cross section (N2) ([3]; [M-H]-): 277.7 Å²
collision cross section (N2) ([4]; [M+NH4]+): 294.5 Å²
collision cross section (N2) ([4]; [M+Na]+): 290.2 Å²
collision cross section (N2) ([4]; [M-H]-): 278.7 Å²
collision cross section (N2) ([2]; [M-H]-): 285.6 Å²
Compound: CC/C=C\C/C=C\C/C=C\CCCCCCCC(=O)O[C@H](COC(=O)CCCCCCCCC/C=C\CCCCCCCC)COP(=O)(O)OC[C@@H](O)CO [PG(38:4)]

collision cross section (N2) ([2]; [M+H]+): 297.2 Å²
Compound: CCCCC/C=C\C/C=C\CCCCCCCC(=O)O[C@H](COCCCCCCCCCCCCCCCC)COP(=O)([O-])OCC[N+](C)(C)C [PC(o34:2)]

collision cross section (N2) ([2]; [M-H]-): 280.1 Å²
Compound: CCCCCCCCCCCCCCCC(=O)OC[C@H](COP(=O)(O)O[C@H]1C(O)C(O)C(O)[C@@H](O)C1O)OC(=O)CCCCCCCCCCCCC (some centres not stated) [PI(14:0/16:0)]
